From patent US12091411B2, “IRAK degraders and uses thereof” (Kymera Therapeutics, Inc., priority 2022, dated 2024)
Read-outs that look alike come from different tables or passages of the source.

Target: T1, IRAK4 (Homo sapiens, UniProt Q9NWZ3)
T1 construct: Degradation of IRAK4 in OCI-LY10 was quantitatively measured using Meso Scale Discovery technology; endogenous in cells; host or cells: OCI-LY10
T1 sequence (Q9NWZ3 1-460): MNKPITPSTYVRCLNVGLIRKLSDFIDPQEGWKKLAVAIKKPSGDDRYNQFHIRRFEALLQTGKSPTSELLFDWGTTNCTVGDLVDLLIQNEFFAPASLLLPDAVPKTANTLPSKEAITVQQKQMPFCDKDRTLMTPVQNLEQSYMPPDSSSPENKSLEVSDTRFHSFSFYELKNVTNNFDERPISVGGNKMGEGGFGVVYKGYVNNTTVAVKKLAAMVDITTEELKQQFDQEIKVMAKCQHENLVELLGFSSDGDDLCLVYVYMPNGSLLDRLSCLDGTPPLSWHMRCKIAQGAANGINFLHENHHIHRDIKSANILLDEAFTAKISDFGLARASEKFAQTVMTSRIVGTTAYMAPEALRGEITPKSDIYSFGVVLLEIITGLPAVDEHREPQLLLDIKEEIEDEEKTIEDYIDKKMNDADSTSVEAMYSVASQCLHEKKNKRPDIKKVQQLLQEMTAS
Experiment: IRAK4 MSD Degradation in OCI-LY10
Format: cell-based
Conditions: OCI-LY10 cells
Experimental: Degradation of IRAK4 in OCI-LY10 was quantitatively measured using Meso Scale Discovery technology. […] Compounds were then added to the assay plates with a final top concentration of 1 to 10 μM in a 1:3 dilution series with total of 8 doses. The assay plates were then incubated for 4 to 24 hours at 37° C. under 5% CO2. […] To prepare MSD assay plates (Meso Scale Discovery Catalog number L15XA-3), the plates were coated with 2 μg/mL capture antibody (mouse Anti-IRAK4 antibody [2H9], ab119942) in PBS, at 40 μL/well. […] Cell lysates were then added to MSD assay plates and the plates were incubated at room temperature for 1 hour. The plates were then washed 3 times with 150 μL/well TBST buffer and 25 μL/well primary detection antibody (rabbit Anti-IRAK4 antibody [Y279], from Abcam. Catalog number ab32511, 1 μg/mL). The assay plates were then incubated at room temperature for 1 hour, washed 3 times with 150 μL/well TBST buffer and 25 μL/well secondary detection antibody, SULFO-TAG anti-rabbit antibody were added (anti-rabbit antibody from Meso Scale Discovery, Catalog number R32AB-1, 1 μg/mL). The assay plates were then incubated at room temperature for 1 hour, washed 3 times with 150 μL/well TBST buffer, and 150 μL/well MSD reading buffer (Meso Scale Discovery catalog number R92TC-2) was added. The plates were then analyzed by a MSD reader (Meso Scale Discovery, Model Quick Plex SQ 120). The data was then analyzed by software Prism 7.0 from GraphPad and the dose-depended IRAK4 degradation were fit using a three-parameter logistic equation to calculate DC50.
The letter codes for IRAK4 DC50 include: A (<0.01 μM); B (0.01 to <0.1 μM); C (0.1 to 0.2 μM); and D (>0.2 μM or not tested).

[1] = 4 hrs incubation, MSD, read-out: IRAK4 degradation in OCI-LY10 at 4 hrs: DC50
[2] = 24 hrs incubation, MSD, read-out: IRAK4 degradation in OCI-LY10 at 24 hrs: DC50

SMILES	DC50 [1]	DC50 [2]	DC50 (4 hrs incubation, read-out: IRAK4 degradation in OCI-LY10 at 4 hrs: DC50)	DC50 (24 hrs incubation, read-out: IRAK4 degradation in OCI-LY10 at 24 hrs: DC50)
CN(C)c1cnc2c(C(=O)Nc3cn([C@H]4CC[C@H](CN5CCN(c6cccc7c6n(C)c(=O)n7C6CCC(=O)NC6=O)CC5)CC4)nc3F)cnn2c1 (stereo partly shown) [I-215]	> 200 nM	> 200 nM		
Cn1c(=O)n(C2CCC(=O)NC2=O)c2cccc(C3CCN(CC4COC5(C4)CN(C[C@H]4CC[C@H](n6cc7cc(NC(=O)c8cccc(C(F)(F)F)n8)c(C(C)(C)O)cc7n6)CC4)C5)CC3)c21 (stereo partly shown) [I-667]	> 200 nM	> 200 nM		
Cn1c(=O)n(C2CCC(=O)NC2=O)c2cccc(N3CCN([C@@H]4CCN(C[C@H]5CC[C@H](n6cc(NC(=O)c7cnn8ccc(N9C[C@H]%10C[C@@H]9CO%10)nc78)c(C(F)F)n6)CC5)CC4(F)F)CC3)c21 (stereo partly shown) [I-365]	> 200 nM	> 200 nM		
Cc1ccc(-c2nn([C@H]3CC[C@H](CN(C)C4CCN(c5cccc6c5n(C)c(=O)n6C5CCC(=O)NC5=O)CC4)CC3)cc2NC(=O)c2cnn3cccnc23)c(F)c1 (stereo partly shown) [I-293]	> 200 nM	> 200 nM		
Cn1c(=O)n(C2CCC(=O)NC2=O)c2cccc(C3CCN(C[C@H]4CC[C@H](n5cc6cc(NC(=O)c7cccc(C#N)n7)ccc6n5)CC4)CC3(F)F)c21 (stereo partly shown) [I-612]	> 200 nM	> 200 nM		
Cn1c(=O)n(C2CCC(=O)NC2=O)c2cccc(C#CCN3CCN(C[C@H]4CC[C@H](n5cc(NC(=O)c6cnn7ccc(N8CCC9(CC8)CC9)nc67)c(C(F)F)n5)CC4)CC3)c21 (stereo partly shown) [I-228]	> 200 nM	< 10 nM		
COc1cc2nn([C@H]3CC[C@H](CN4CCC(c5cccc6c5n(C)c(=O)n6C5CCC(=O)NC5=O)CC4)CC3)cc2cc1NC(=O)c1cncc(F)c1 (stereo partly shown) [I-439]	< 10 nM	> 200 nM		
Cn1c(=O)n(C2CCC(=O)NC2=O)c2cccc(OC3CCN([C@H]4CC[C@H](n5cc(NC(=O)c6cnn7ccc(N8C[C@H]9C[C@@H]8CO9)nc67)c(C(F)F)n5)CC4)CC3(F)F)c21 (stereo partly shown) [I-756]	> 200 nM	> 200 nM		
Cn1c(=O)n(C2CCC(=O)NC2=O)c2cccc(C#CCOC3CN(C[C@H]4CC[C@H](n5cc(NC(=O)c6cnn7ccc(N8C[C@H]9C[C@@H]8CO9)nc67)c(C(F)F)n5)CC4)C3)c21 (stereo partly shown) [I-20]	< 10 nM	> 200 nM		
Cn1c(=O)n(C2CCC(=O)NC2=O)c2cccc(C3CCN(C[C@H]4CC[C@H](n5cc6cc(NC(=O)c7cccc(C(F)(F)F)n7)c(C(F)F)cc6n5)CC4)CC3(F)F)c21 (stereo partly shown) [I-443]	> 200 nM	> 200 nM		
CN(C[C@H]1CC[C@H](n2cc(NC(=O)c3cnn4ccc(N5CC6CC(C5)O6)nc34)c(C(F)F)n2)CC1)C1CCN(c2cccc3c2n(C)c(=O)n3C2CCC(=O)NC2=O)CC1(F)F (stereo partly shown) [I-525]	> 200 nM	< 10 nM		
COc1cc2nn([C@H]3CC[C@H](CN4CCC(c5cccc6c5n(C)c(=O)n6C5CCC(=O)NC5=O)C(F)(F)C4)CC3)cc2cc1NC(=O)c1cccc(C(F)(F)F)n1 (stereo partly shown) [I-451]	> 200 nM	> 200 nM		
C[C@H]1CN(C[C@H]2C[C@H](n3cc(NC(=O)c4cnn5ccc(N6C[C@H]7C[C@@H]6CO7)nc45)c(C(F)F)n3)C2)CC[C@@H]1OCC#Cc1cccc2c(N3CCC(=O)NC3=O)cncc12 [I-53]	< 10 nM	> 200 nM		
C[C@@H]1CN(C[C@H]2CC[C@H](n3cc(NC(=O)c4cnn5ccc(N6C[C@H]7C[C@@H]6CO7)nc45)c(C(F)F)n3)CC2)CC[C@H]1OCC#Cc1cccc2c(N3CCC(=O)NC3=O)cncc12 [I-55]	10 to 100 nM	> 200 nM		
Cn1c(=O)n(C2CCC(=O)NC2=O)c2cccc(N3CCN(CC[C@H]4CC[C@H](n5cc(NC(=O)c6cnn7cccnc67)c(C(F)F)n5)CC4)CC3)c21 (stereo partly shown) [I-237]	> 200 nM	10 to 100 nM		
Cn1c(=O)n(C2CCC(=O)NC2=O)c2cccc(CCCN3CCN(C[C@H]4CC[C@H](n5cc(NC(=O)c6cccc(C(F)(F)F)n6)c(C(F)F)n5)CC4)CC3)c21 (stereo partly shown) [I-213]	> 200 nM	> 200 nM		

SMILES	DC50 [1]	DC50 [2]	DC50 (4 hrs incubation, read-out: IRAK4 degradation in OCI-LY10 at 4 hrs: DC50)	DC50 (24 hrs incubation, read-out: IRAK4 degradation in OCI-LY10 at 24 hrs: DC50)
COc1cc2nn([C@H]3CC[C@H](CN4CC[C@@H](c5cccc6c5n(C)c(=O)n6C5CCC(=O)NC5=O)[C@H](F)C4)CC3)cc2cc1NC(=O)c1cccc(C(F)(F)F)n1 (stereo partly shown) [I-783]	> 200 nM	> 200 nM		
Cn1c(=O)n(C2CCC(=O)NC2=O)c2cccc(C#CCN3CCN(C[C@H]4CC[C@H](n5cc(NC(=O)c6cnn7ccc(N8CC9COCC9C8)nc67)c(C(F)F)n5)CC4)CC3)c21 (stereo partly shown) [I-323]	> 200 nM	> 200 nM		
Cn1c(=O)n(C2CCC(=O)NC2=O)c2ccc(N3CCN(CC4COC5(C4)CN(C[C@H]4CC[C@H](n6cc(NC(=O)c7cnn8ccc(N9C[C@H]%10C[C@@H]9CO%10)nc78)c(C(F)F)n6)CC4)C5)CC3)cc21 (stereo partly shown) [I-712]	> 200 nM	< 10 nM		
Cn1c(=O)n(C2CCC(=O)NC2=O)c2cccc(C#CCN3CCN(C[C@H]4CC[C@H](n5cc(NC(=O)c6cnn7ccc(N8CCOC(F)(F)C8)nc67)c(C(F)F)n5)CC4)CC3)c21 (stereo partly shown) [I-703]	> 200 nM	< 10 nM		
Cc1cccc(C(=O)Nc2ccc3nn([C@H]4CC[C@H](CN5CC[C@@H](c6cccc7c6n(C)c(=O)n7C6CCC(=O)NC6=O)[C@H](F)C5)CC4)cc3c2)n1 (stereo partly shown) [I-621]	> 200 nM	> 200 nM		
CN1CC2(CCN(c3ccn4ncc(C(=O)Nc5cn([C@H]6CC[C@H](CN7CCN(CC#Cc8cccc9c8n(C)c(=O)n9C8CCC(=O)NC8=O)CC7)CC6)nc5C(F)F)c4n3)CC2)C1 (stereo partly shown) [I-297]	> 200 nM	> 200 nM		
Cn1c(=O)n(C2CCC(=O)NC2=O)c2cccc(N3CCC(O[C@H]4CC[C@H](n5cc6cc(NC(=O)c7cccc(C(F)(F)F)n7)ccc6n5)CC4)C3)c21 (stereo partly shown) [I-794]			> 200 nM	> 200 nM
Cn1c(=O)n(C2CCC(=O)NC2=O)c2cccc([C@H]3C[C@H](O[C@@H]4CCN(C[C@H]5CC[C@H](n6cc(NC(=O)c7cnn8ccc(N9C[C@H]%10C[C@@H]9CO%10)nc78)c(C(F)F)n6)CC5)C[C@H]4F)C3)c21 (stereo partly shown) [I-594]	> 200 nM	> 200 nM		
Cn1c(=O)n(C2CCC(=O)NC2=O)c2cccc(N3CCC(O[C@H]4CC[C@H](n5cc6cc(NC(=O)c7cccc(C(F)(F)F)n7)ccc6n5)CC4)CC3)c21 (stereo partly shown) [I-792]	> 200 nM	> 200 nM		
C[C@@H]1CN(c2ccn3ncc(C(=O)Nc4cn([C@H]5CC[C@H](CN6CCN(CC#Cc7cccc8c7n(C)c(=O)n8C7CCC(=O)NC7=O)CC6)CC5)nc4C(F)F)c3n2)CCO1 (stereo partly shown) [I-406]	> 200 nM	< 10 nM		
Cn1c(=O)n(C2CCC(=O)NC2=O)c2cccc(CCCN3CCN(C[C@H]4CC[C@H](n5cc(NC(=O)c6cnn7ccc(N8C[C@H]9C[C@@H]8CO9)nc67)c(C(F)F)n5)CC4)CC3)c21 (relative stereo) [I-114]	< 10 nM	> 200 nM		
COc1ccc2c(c1N1CCC(N(C)C[C@H]3CC[C@H](n4cc(NC(=O)c5cnn6cccnc56)c(C(F)F)n4)CC3)C(F)(F)C1)n(C)c(=O)n2C1CCC(=O)NC1=O (stereo partly shown) [I-453]	> 200 nM	> 200 nM		
Cn1c(=O)n(C2CCC(=O)NC2=O)c2cccc(C3COC4(C3)CN(C[C@H]3CC[C@H](n5cc6cc(NC(=O)c7cccc(C(F)(F)F)n7)ccc6n5)CC3)C4)c21 (stereo partly shown) [I-689]	> 200 nM	< 10 nM		
O=C1CCC(c2ccc(N3CC(N4CCN([C@H]5CC[C@H](n6cc(NC(=O)c7cnn8ccc(N9C[C@H]%10C[C@@H]9CO%10)nc78)c(C(F)F)n6)CC5)CC4)C3)cc2Cl)C(=O)N1 (stereo partly shown) [I-779]	> 200 nM	> 200 nM		
CN(C[C@H]1CC[C@H](n2cc(NC(=O)c3cnn4ccc(N5CCOC6(CCC6)C5)nc34)c(C(F)F)n2)CC1)C1CCN(c2cccc3c2n(C)c(=O)n3C2CCC(=O)NC2=O)CC1(F)F (stereo partly shown) [I-540]	> 200 nM	> 200 nM		
Cn1c(=O)n(C2CCC(=O)NC2=O)c2cccc([C@H]3CCN(C[C@H]4CC[C@H](n5cc6cc(NC(=O)c7cccc(C(F)(F)F)n7)ncc6n5)CC4)C[C@H]3F)c21 (single isomer, unassigned) [I-781]	> 200 nM	> 200 nM		
